Like-named read-outs stand apart in the source and are kept apart here.
What was measured:
[1] = biological target: T1, farnesyl protein transferase (Homo sapiens, UniProt P49354+P49356); experiment: FPT IC50, inhibition of farnesyl protein transferase, in vitro enzyme assay (H-ras); type: biochemical
Experimental: (§1) FPT IC50 (inhibition of farnesyl protein transferase, in vitro enzyme assay) and COS Cell IC50 (Cell-Based Assay) were determined following the assay procedures described in WO 95110516, published Apr. 20, 1995. GGPT IC50 (inhibition of geranylgeranyl protein transferase, in vitro enzyme assay), Cell Mat Assay, and anti-tumor activity (in vivo anti-tumor studies) could be determined by the assay procedures described in WO 95/10516. The disclosure of WO 95/10516 is incorporated herein by reference thereto.

[2] = system: COS Cell; experiment: COS Cell IC50 (Cell-Based Assay)
Experimental: as §1

[3] = system: Human tumor cells; experiment: Soft Agar Assay (anchorage-independent growth); type: cell-based; conditions: 10-16 days at 37° C., 5% CO2, MTT staining, read-out: Soft Agar FPT IC50
Experimental: Anchorage-independent growth is a characteristic of tumorigenic cell lines. Human tumor cells are suspended in growth medium containing 0.3% agarose and an indicated concentration of a farnesyl transferase inhibitor. The solution is overlayed onto growth medium solidified with 0.6% agarose containing the same concentration of farnesyl transferase inhibitor as the top layer. After the top layer is solidified, plates are incubated for 10-16 days at 37° C. under 5% CO2 to allow colony outgrowth. After incubation, the colonies are stained by overlaying the agar with a solution of MTT (3-[4,5-dimethyl-thiazol-2-yl]-2,5-diphenyltetrazolium bromide, Thiazolyl blue) (1 mg/mL in PBS). Colonies can be counted and the IC50 's can be determined.

[4] = biological target: T1, farnesyl protein transferase; experiment: FPT IC50, inhibition of farnesyl protein transferase (K-ras); type: biochemical
Experimental: as §1

Row | IC50 [1] [nM] | IC50 [3] [nM] | IC50 [4] [nM] | IC50 ([3]; value given in M) [nM] | Structure (SMILES) | IC50 [2] [nM]
1 | 18 | > 500 | 42 | – | CC(C)(C)OC(=O)N1CCN(C(=O)CN2CCC(CC(=O)N3CCC([C@H]4c5ncc(Br)cc5CCc5cc(Cl)cc(Br)c54)CC3)CC2)CC1 [Compound 8.0] | 22
2 | 5.4 | – | – | – | O=C(CC1CCN(CC(=O)N2CCc3ccccc32)CC1)N1CCC([C@H]2c3ncc(Br)cc3CCc3cc(Cl)cc(Br)c32)CC1 [Compound 10.0] | 100
3 | 4.3 | 300 | 46 | – | CCN(CC)C(=O)CN1CCC(CC(=O)N2CCC([C@H]3c4ncc(Br)cc4CCc4cc(Cl)cc(Br)c43)CC2)CC1 [Compound 4.0] | 40
4 | 2 | 60 | – | – | O=C(CC1CCN(CC(O)CO)CC1)N1CCC([C@H]2c3ncc(Br)cc3CCc3cc(Cl)cc(Br)c32)CC1 (stereo partly shown) [Compound 20.0] | < 10
5 | 3.9 | 175 | 26 | – | CON(C)C(=O)CN1CCC(CC(=O)N2CCC([C@H]3c4ncc(Br)cc4CCc4cc(Cl)cc(Br)c43)CC2)CC1 [Compound 3.0] | 20
6 | 3.4 | – | 17 | > 500 | O=C(CN1CCC(CC(=O)N2CCC([C@H]3c4ncc(Br)cc4CCc4cc(Cl)cc(Br)c43)CC2)CC1)N[C@@H]1O[C@H](CO)[C@H](O)[C@H](O)[C@H]1O [Compound 6.0] | 300
7 | 1.8 | 70 | 8.6 | – | NC(=O)CN1CCC(CC(=O)N2CCC([C@H]3c4ncc(Br)cc4CCc4cc(Cl)cc(Br)c43)CC2)CC1 [Compound 2.0] | 6
8 | 5 | 100 | 20 | – | O=C(CC1CCN(CC(=O)N2CCOCC2)CC1)N1CCC([C@H]2c3ncc(Br)cc3CCc3cc(Cl)cc(Br)c32)CC1 [Compound 7.0] | 25
9 | 28 | – | – | – | CC(C)(C)OC(=O)CN1CCC(CC(=O)N2CCC([C@H]3c4ncc(Br)cc4CCc4cc(Cl)cc(Br)c43)CC2)CC1 [Compound 11.0] | –
10 | 16 | – | 51.9 | – | O=C(CN1CCC(CC(=O)N2CCC([C@H]3c4ncc(Br)cc4CCc4cc(Cl)cc(Br)c43)CC2)CC1)NCc1ccccc1 [Compound 5.0] | 840
11 | 4.3 | 500 | 17 | – | O=C(CC1CCN(CC(=O)N2CCNCC2)CC1)N1CCC([C@H]2c3ncc(Br)cc3CCc3cc(Cl)cc(Br)c32)CC1 [Compound 9.0] | 120

From US6040305A, “Compounds useful for inhibition of farnesyl protein transferase” (Schering Corporation, priority 1997, dated 2000)
